The target of data set [1] is T1, Acetylcholinesterase (Electrophorus electricus, UniProt O42275). Briefly: Inhibition of Electrophorus electricus AchE using acetylthiocholine iodide as substrate preincubated for 10 mins followed by substrate addition by spectrophotometric based Ellman's method. Background: DTNB colorimetry detects thiols as they appear.
In data set [2] the target is Cholinesterase (Equus caballus, UniProt P81908). Put plainly: Inhibition of equine serum BuChE using butyrylthiocholine as substrate preincubated for 10 mins followed by substrate addition by spectrophotometric based Ellman's method.
Data set [3] has as its system HT-29. Briefly: Cytotoxicity against human HT-29 cells assessed as reduction in cell viability upto 30 uM incubated for 24 hrs by calcein/propidium iodide assay. The class given is toxicity, cell-based. The settings on record: ht-29, 24 h.
A short description of data set [4]: Selectivity ratio, ratio of IC50 for equine serum BuChE to IC50 for Electrophorus electricus AchE.
For data set [5], the system named is SH-SY5Y. Put plainly: Neuroprotective activity against t-BOOH induced neurotoxicity in human SH-SY5Y cells assessed as inhibition of ROS formation at 10 uM incubated for 30 mins by H2DCF-DA fluorescence assay. The class given is functional, cell-based.
The target of data set [6] is T1, Acetylcholinesterase. Briefly: Inhibition of Electrophorus electricus AchE assessed as inhibition constant.
In data set [7] the test system is SH-SY5Y. Put plainly: Cytotoxicity against human SH-SY5Y cells assessed as reduction in cell viability upto 40 uM incubated for 24 hrs by MTT assay. The class given is toxicity, cell-based. On the technique in general: Tetrazolium dyes change colour on reduction, which living cells bring about.
Data set [8] has as its system SH-SY5Y. Briefly: Antioxidant activity against t-BOOH induced neurotoxicity in human SH-SY5Y cells at 10 uM. The format is functional.
The subject of data set [9] is SH-SY5Y. Briefly: Cytotoxicity against human SH-SY5Y cells assessed as reduction in cell viability at 20 to 80 uM incubated for 24 hrs by MTT assay. The settings on record: dose 20-80 µM. The format is toxicity, cell-based.
For data set [10], the system named is SH-SY5Y. Put plainly: Neuroprotective activity against t-BOOH induced neurotoxicity in human SH-SY5Y cells assessed as inhibition of ROS formation at 2.5 to 10 uM incubated for 30 mins by H2DCF-DA fluorescence assay. The format is functional, cell-based. The settings on record: dose 2.5-10 µM.
The subject of data set [11] is SH-SY5Y. Put plainly: Neuroprotective activity against t-BOOH induced neurotoxicity in human SH-SY5Y cells assessed as increase in cell viability at 2.5 to 10 uM incubated for 4 hrs by MTT assay. The format is functional, cell-based. The settings on record: dose 2.5-10 µM.
For data set [12], the system named is SH-SY5Y. Briefly: Antioxidant activity against t-BOOH induced neurotoxicity in human SH-SY5Y cells. The format is functional, cell-based.
In data set [13] the test system is SH-SY5Y. Briefly: Neuroprotective activity against amyloid beta (1 to 42) induced neurotoxicity in human SH-SY5Y cells assessed as increase in cell viability at 5 to 10 uM incubated for 4 hrs by MTT assay. The format is functional, cell-based. The settings on record: dose 5-10 µM.
In data set [14] the target is Amyloid-beta precursor protein (Homo sapiens) (UniProt P05067). Put plainly: Inhibition of amyloid beta (1 to 42) (unknown origin) self aggregation at 75 uM by Thioflavin T based fluorescence assay.
Data set [15] has as its target Acetylcholinesterase (Electrophorus electricus) (UniProt O42275). Put plainly: Inhibition of Electrophorus electricus AchE using acetylthiocholine iodide as substrate at 30 uM preincubated for 10 mins followed by substrate addition by spectrophotometric based Ellman's method.

pIC50, pKi: −log10 of the molar value. Calls of active or inactive are those of the source. The calls are words filed in the database; no cut-off is given here.

Sequence of Cholinesterase (P81908 whole entry): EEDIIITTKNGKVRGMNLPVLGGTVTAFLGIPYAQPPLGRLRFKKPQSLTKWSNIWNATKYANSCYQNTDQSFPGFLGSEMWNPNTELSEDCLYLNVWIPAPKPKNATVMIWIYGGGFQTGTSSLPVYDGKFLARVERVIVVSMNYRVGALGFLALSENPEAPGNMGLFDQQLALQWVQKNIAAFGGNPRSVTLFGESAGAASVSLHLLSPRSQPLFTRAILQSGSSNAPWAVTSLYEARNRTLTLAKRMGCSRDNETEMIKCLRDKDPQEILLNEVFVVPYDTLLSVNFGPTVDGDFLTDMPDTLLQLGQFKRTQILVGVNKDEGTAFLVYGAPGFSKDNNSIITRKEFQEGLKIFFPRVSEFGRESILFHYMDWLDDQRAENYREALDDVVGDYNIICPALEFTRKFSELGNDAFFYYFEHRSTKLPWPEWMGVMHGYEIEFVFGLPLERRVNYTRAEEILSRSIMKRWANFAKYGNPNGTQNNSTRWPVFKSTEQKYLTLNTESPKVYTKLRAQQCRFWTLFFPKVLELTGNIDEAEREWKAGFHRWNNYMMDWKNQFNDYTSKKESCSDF
T1 sequence (O42275 whole entry): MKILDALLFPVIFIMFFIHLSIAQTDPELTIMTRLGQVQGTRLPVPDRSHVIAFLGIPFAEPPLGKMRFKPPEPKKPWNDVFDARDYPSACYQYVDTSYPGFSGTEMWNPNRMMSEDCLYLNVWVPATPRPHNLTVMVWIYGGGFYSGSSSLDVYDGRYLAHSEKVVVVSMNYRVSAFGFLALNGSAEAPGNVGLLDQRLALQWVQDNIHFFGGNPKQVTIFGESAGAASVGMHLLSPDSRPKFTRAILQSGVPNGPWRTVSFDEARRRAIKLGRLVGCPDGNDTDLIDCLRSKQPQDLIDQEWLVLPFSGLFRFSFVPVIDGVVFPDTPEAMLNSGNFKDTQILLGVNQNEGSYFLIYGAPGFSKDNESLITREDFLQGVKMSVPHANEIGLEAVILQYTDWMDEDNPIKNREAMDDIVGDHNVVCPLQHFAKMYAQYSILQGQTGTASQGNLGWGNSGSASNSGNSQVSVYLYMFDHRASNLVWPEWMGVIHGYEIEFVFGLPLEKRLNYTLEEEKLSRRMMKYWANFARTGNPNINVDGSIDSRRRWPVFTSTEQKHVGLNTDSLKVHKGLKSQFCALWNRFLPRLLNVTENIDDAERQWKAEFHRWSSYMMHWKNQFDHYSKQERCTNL
Sequence of Acetylcholinesterase (Electrophorus electricus) (O42275 24-633 limits assumed): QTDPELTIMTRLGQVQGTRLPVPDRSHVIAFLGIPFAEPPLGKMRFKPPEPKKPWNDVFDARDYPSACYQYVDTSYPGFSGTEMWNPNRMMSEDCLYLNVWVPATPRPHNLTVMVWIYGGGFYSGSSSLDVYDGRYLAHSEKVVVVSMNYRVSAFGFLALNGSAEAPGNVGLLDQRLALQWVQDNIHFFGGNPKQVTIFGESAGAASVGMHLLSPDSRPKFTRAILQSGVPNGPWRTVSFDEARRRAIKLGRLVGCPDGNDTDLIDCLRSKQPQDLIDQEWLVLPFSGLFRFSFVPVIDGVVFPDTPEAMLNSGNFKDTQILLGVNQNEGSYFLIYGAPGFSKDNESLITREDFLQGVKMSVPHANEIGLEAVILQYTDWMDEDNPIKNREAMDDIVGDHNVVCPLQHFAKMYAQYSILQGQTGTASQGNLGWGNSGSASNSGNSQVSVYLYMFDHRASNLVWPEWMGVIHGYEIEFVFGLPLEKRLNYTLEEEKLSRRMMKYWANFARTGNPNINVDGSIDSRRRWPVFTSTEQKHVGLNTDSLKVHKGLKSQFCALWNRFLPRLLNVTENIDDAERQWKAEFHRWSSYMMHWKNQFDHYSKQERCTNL
Sequence of Amyloid-beta precursor protein (Homo sapiens) (P05067 whole entry): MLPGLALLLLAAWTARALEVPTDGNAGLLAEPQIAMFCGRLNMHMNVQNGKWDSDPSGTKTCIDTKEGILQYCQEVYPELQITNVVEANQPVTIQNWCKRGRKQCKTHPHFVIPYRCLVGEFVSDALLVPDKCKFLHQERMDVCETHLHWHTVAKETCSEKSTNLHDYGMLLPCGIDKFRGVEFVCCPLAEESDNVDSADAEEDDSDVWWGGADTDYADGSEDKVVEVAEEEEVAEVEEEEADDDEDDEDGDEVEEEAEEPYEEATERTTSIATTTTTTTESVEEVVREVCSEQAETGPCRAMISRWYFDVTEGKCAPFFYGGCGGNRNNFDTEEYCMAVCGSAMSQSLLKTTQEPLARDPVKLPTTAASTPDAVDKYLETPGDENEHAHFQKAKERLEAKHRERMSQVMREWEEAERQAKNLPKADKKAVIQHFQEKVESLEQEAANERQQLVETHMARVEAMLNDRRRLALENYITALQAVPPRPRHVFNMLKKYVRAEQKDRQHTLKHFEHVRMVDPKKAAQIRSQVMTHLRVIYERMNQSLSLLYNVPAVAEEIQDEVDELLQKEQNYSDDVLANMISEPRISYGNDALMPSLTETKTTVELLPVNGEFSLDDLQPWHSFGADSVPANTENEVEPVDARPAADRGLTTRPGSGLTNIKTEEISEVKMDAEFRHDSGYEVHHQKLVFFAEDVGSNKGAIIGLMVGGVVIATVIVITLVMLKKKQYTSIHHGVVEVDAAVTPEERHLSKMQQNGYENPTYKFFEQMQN

For orientation: pIC50 means −log10 of the IC50, conventionally taken in molar units. A higher pIC50 goes with a small IC50. For the compound `O=C(N/N=C/c1cccc(O)c1)c1ccc(CN2CCC(CO)CC2)cc1`, the pIC50 in [1] was 4.86; in data set [2] it was less than 4.52. Also, the Activity result in data set [3] is recorded as “Non-Toxic”. The Ratio IC50 in data set [4] is more than 2.2.
As for `O=C(N/N=C/c1cccc(F)c1)c1ccc(CN2CCC(CO)CC2)cc1`, the pIC50 is 5.09 in [1] and less than 4.52 in data set [2]. Moreover, the Activity entry in data set [3] is reported as “Non-Toxic”. Besides, the Ratio IC50 in data set [4] was more than 3.6.
As usually defined, the pKi is −log10 of the Ki, conventionally taken in molar units. A word on the inhibition: it is the change of the read-out against control, counted positive when it falls. Regarding `O=C(N/N=C/c1cccc(Cl)c1)c1ccc(CN2CCC(CO)CC2)cc1`, the pIC50 was 5.48 in data set [1] and 4.30 in data set [2]. The result in data set [5] was Active. Besides, the Activity result in [3] and in data set [7] was “Non-Toxic” in each case. For the same compound, the pKi in [6] was 5.71. For the same compound, the Ratio IC50 in data set [4] amounted to 15. For the same compound, the inhibition at 10 µM in data set [8] was 46%.
In the case of `O=C(N/N=C/c1ccc(N2CCCCC2)cc1)c1ccc(CN2CCC(CO)CC2)cc1`, the pIC50 was 4.92 in data set [1] and less than 4.52 in data set [2]. Also, the results for the Activity result in [9] and in [3] were “Toxic” and “Non-Toxic”, respectively. For the same compound, the pKi in data set [6] was 5.20. The Ratio IC50 in data set [4] was more than 2.5.
Consider `O=C(N/N=C/c1ccc(F)cc1)c1ccc(CN2CCC(CO)CC2)cc1`, for which the values for the negative-log IC50 (pIC50) in [1] and in [2] were 4.58 and less than 4.52, respectively. Also, the Activity entry in [3] was “Non-Toxic”. The Ratio IC50 in [4] was more than 1.1.
The matching figures for `COc1ccc(/C=N/NC(=O)c2ccc(CN3CCC(CO)CC3)cc2)cc1`: 4.82, less than 4.52, “Non-Toxic” and more than 2.
As for `COc1ccccc1/C=N/NC(=O)c1ccc(CN2CCC(CO)CC2)cc1`, the negative-log IC50 (pIC50) was 4.87 in data set [1] and 4.89 in [2]. Besides, in [3], the Activity result was “Non-Toxic”. Moreover, the Ratio IC50 in data set [4] turned out to be 1.
The like results for `O=C(N/N=C/c1ccccc1Cl)c1ccc(CN2CCC(CO)CC2)cc1` were, in that order, 5.05, 4.89, “Non-Toxic” and 1.4.
On to `O=C(N/N=C/c1ccccc1O)c1ccc(CN2CCC(CO)CC2)cc1`, for which the outcome in [10], in data set [11] and in data set [13] was Active. Also, the negative logarithm of the IC50 (pIC50) in data set [1] was 5.23; in data set [12], 5.13; in data set [2], less than 4.52. Further, the Activity entry in data set [9] is recorded as “Toxic”; in [3] it was “Non-Toxic”. In [14], this compound came in with an inhibition of 30%. Also, the pKi in [6] was 5.42. Further, the Ratio IC50 in data set [4] is more than 5.1. The compound further yielded an inhibition at 10 µM in data set [8] of 67.1%.
`O=C(N/N=C/c1ccccc1F)c1ccc(CN2CCC(CO)CC2)cc1`: the pIC50 in [1] is 4.92; in data set [2], less than 4.52. Also, the Activity result in data set [3] is reported as “Non-Toxic”. Also, in [4], the Ratio IC50 is more than 2.5.
`O=C(N/N=C/c1ccc(Cl)cc1)c1ccc(CN2CCC(CO)CC2)cc1`: the pIC50 is 5.25 in data set [1] and less than 4.52 in data set [2]. The outcome in data set [5] was Active. Moreover, the Activity entry in data set [3] and in [7] was “Non-Toxic” throughout. Also, the pKi in [6] was 5.45. Moreover, the Ratio IC50 in data set [4] is more than 5.4. This compound displayed an inhibition at 10 µM in [8] of 24.5%.
On to `O=C(N/N=C/c1ccc(O)cc1)c1ccc(CN2CCC(CO)CC2)cc1`, for which the pIC50 was 4.60 in [1] and less than 4.52 in data set [2]. In addition, the inhibition in [15] turned out to be 45%. In addition, the Activity result in data set [3] was “Non-Toxic”. In data set [4], the Ratio IC50 is more than 1.2.

The values above are taken from ChEMBL document CHEMBL5107999, “Synthesis and biological evaluation of 4-hydroxy-methylpiperidinyl-N-benzyl-acylarylhydrazone hybrids designed as novel multifunctional drug candidates for Alzheimer's disease” (Bioorg Med Chem, 2022).
